What was measured:
[1] = test system: Hs578T cells; experiment: MTS viable cell assay in Hs578T TNBC cell line; type: cell-based; conditions: RD162′ 10 μM, DHT 10 nM, 9 days, FIG. 8
Procedure: Viable cells were assayed by MTS assay. Averages of the triplicate data points are shown with standard deviation. ***p<0.001 (two-tail t-test).

[2] = test system: MDA-MB-453 cells; experiment: MDA-MB-453 xenograft in mammary fat pad of NOD-SCID-IL2Rgc-/- mice with DHT pellet (Example 7); type: in vivo
[3] = test system: MDA-MB-453 tumors; experiment: Androgen stimulated MDA-MB-453 orthotopic tumors in NOD-SCID-IL2Rgc-/- mice (Example 10); type: in vivo
[4] = test system: BCK4 cells; experiment: Proliferation assay, DHT-mediated growth in BCK4 cells; type: cell-based; conditions: RD162′ and DHT; FIG. 2
[5] = test system: BT20 cells; experiment: MTT assay in triple negative breast cancer cell line BT20; type: cell-based; conditions: 10 μM RD162′, FIG. 6B
[6] = test system: MDA-MB-453 cells; experiment: MTS in vitro proliferation assay, DHT-induced proliferation of MDA-MB-453 cells; type: cell-based; conditions: 10 μM RD162′, 10 nM DHT, FIG. 7A
[7] = test system: MCF7-TGL cells; experiment: Estrogen stimulated MCF7-TGL orthotopic tumors in ovariectomized nude mice; type: in vivo; conditions: for BrdU staining of tumor sections, P vs E2 group: BrdU two hours prior to sacrifice, ANOVA with Bonferroni correction, FIG. 11D
Procedure: MCF7-TGL cells stably expressing luciferase were implanted orthotopically in the mammary gland of ovariectomized female nude mice. […] The beginning of treatment is indicated by an arrow. Tumor burden was measured by whole body luminescence. […] Mice were matched on day −3 and treatment began on day 0. * indicates P<0.05, ANOVA with Bonferroni's multiple comparison test correction (FIG. 11A). The total luminescent flux is shown for all individual mice at the day of matching (Day −3) and at the final imaging day (Day 11). * indicates P<0.05, ANOVA with Bonferroni's multiple comparison test correction (FIG. 11B). Images of luminescent signal in the two treatment groups at the day of matching ([…]) and the final day of imaging (day 11) is shown (FIG. 11C). Mice were injected with BrdU two hours prior to sacrifice.

[8] = test system: MCF7 cells; experiment: MTT in vitro proliferation assay, DHT-mediated growth in MCF7 cells; type: cell-based; conditions: 10 μM RD162′ with 10 nM DHT; MTT at various time points; FIG. 1
[9] = test system: MCF7 cells; experiment: MTT assay, estradiol-mediated growth in MCF7 cells; type: cell-based; conditions: 10 μM RD162′ with 10 nM estradiol (E2); MTT at various time points; FIG. 3
Procedure: MCF7 cells were plated in phenol red-free medium containing charcoal stripped serum. […] An MTT assay was performed at various time points. The values were normalized to an untreated plate read 24 hours after plating to account for differences in cell density.

[10] = test system: MCF7 cells; experiment: MCF7 luciferase tumors in mammary fat pad of ovariectomized nod/scid mice with DHT pellet; type: in vivo; conditions: chow containing 50 mg/kg RD162′ from day 22, FIGS. 5A-D
[11] = test system: androgen-dependent luciferase reporter in MDA-kb2 cells; experiment: Luciferase assay in MDA-kb2 cells with androgen-dependent luciferase reporter; type: cell-based; conditions: FIG. 7B
[12] = test system: MDA468 cells; experiment: MTT assay in triple negative breast cancer cell line MDA468; type: cell-based; conditions: 10 μM RD162′, FIG. 6C

Structure (SMILES) | growth of Hs578T cells (viable cells) [1] | DHT induced tumor growth (tumor weight at necropsy) ([2]; 10 mg/kg/d and 25 mg/kg/d RD162′ by oral gavage, both doses, FIG. 7E) | tumor growth induced by DHT (caliper tumor size) ([2]; 10 mg/kg/d or 25 mg/kg/d RD162′ by oral gavage, either dose, FIG. 7D) | androgen stimulated growth of MDA-MB-453 tumors ([3]; RD162′ 10 mg/kg daily oral gavage from 100 mm^3, DHT pellet, FIGS. 10A-D) | tumor volume, DHT vs DHT+RD162′ ([3]; RD162′ 25 mg/kg by oral gavage started when tumors reached 400 mm^3, weekly caliper, FIG. 10A) | DHT-mediated growth of BCK4 cells [4] | cell growth of BT20 [5] | cell viability of BT20 [5] | proliferation of MDA-MB-453 cells induced by DHT [6] | BrdU staining of tumor sections, P vs E2 group [7] | inhibition of estrogen stimulated tumor growth (whole body luminescence) ([7]; chow containing 50 mg/kg RD162′ vs tamoxifen pellet SQ, E2 pellet, FIGS. 11A-C) | DHT-mediated growth of MCF7 cells [8] | estradiol-mediated growth of MCF7 cells [9] | DHT-mediated tumor growth in vivo (caliper and IVIS imaging) [10] | DHT-induced signal in luciferase assay (printed as proliferation) [11] | cell growth of MDA468 [12] | cell viability of MDA468 [12]
C[C@]12CCC(=O)C[C@@H]1CC[C@@H]1[C@@H]2CC[C@]2(C)[C@@H](O)CC[C@@H]12 [DHT, dihydrotestosterone, reference compound] | does not increase the growth | – | – | – | – | – | – | – | – | – | – | – | – | – | – | – | –
CNC(=O)c1ccc(N2C(=S)N(c3ccc(C#N)c(C(F)(F)F)c3)C(=O)C2(C)C)cc1F [RD162′, enzalutamide] | Inhibits the Growth | significantly inhibited DHT induced tumor growth | inhibited tumor growth | Inhibits Androgen Stimulated Growth | no significant differences at any time point | blocks DHT-mediated growth | inhibits cell growth | decreases cell viability | inhibits proliferation | < 0.001 | as Effective as Tamoxifen | blocks DHT-mediated growth | blocks estradiol-mediated growth | inhibits DHT-mediated tumor growth | inhibits proliferation induced by DHT in a dose dependent manner | inhibits cell growth | decreases cell viability
CC/C(=C(\c1ccccc1)c1ccc(OCCN(C)C)cc1)c1ccccc1 [Tamoxifen, tamoxifen, reference compound] | – | – | – | – | – | – | – | – | – | < 0.01 | – | – | – | – | – | – | –
